In PMC6893898, “Receptor Interaction Profiles of 4-Alkoxy-Substituted 2,5-Dimethoxyphenethylamines and Related Amphetamines” (Frontiers in Pharmacology, 2019):

Assays:
α1A adrenergic receptor = biological target: T1, α1A adrenergic receptor (Homo sapiens, UniProt P35348); experiment: Radioligand binding, α1A adrenergic receptor ([3H]prazosin)
T1 construct: expressed in transfected cells; host or cells: Chinese hamster ovary cell line (membrane preparation)
T1 sequence (P35348 1-466): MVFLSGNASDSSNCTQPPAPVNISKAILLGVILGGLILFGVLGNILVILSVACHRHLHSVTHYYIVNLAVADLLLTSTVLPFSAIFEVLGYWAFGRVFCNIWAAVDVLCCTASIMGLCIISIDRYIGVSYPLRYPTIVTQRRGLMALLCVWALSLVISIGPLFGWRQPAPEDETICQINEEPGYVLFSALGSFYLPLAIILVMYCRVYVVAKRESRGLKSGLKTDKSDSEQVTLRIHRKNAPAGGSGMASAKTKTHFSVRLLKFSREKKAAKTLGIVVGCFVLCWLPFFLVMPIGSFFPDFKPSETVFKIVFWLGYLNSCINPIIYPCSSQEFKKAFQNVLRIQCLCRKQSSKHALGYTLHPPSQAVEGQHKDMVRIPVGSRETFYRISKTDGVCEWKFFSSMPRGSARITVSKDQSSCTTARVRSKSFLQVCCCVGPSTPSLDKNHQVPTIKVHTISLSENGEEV

human 5-HT2B receptor = biological target: T2, human 5-HT2B receptor (Homo sapiens, UniProt P41595); experiment: Activity at the 5-HT2B receptor (FLIPR calcium, HEK 293 cells); assay type: cell-based; conditions: for Emax: HEK293, relative to 5-HT = 100%, read-out: h5-HT2B Activation efficacy max ± SD
T2 construct: expressed in transfected cells; host or cells: HEK 293
T2 sequence (P41595 whole entry): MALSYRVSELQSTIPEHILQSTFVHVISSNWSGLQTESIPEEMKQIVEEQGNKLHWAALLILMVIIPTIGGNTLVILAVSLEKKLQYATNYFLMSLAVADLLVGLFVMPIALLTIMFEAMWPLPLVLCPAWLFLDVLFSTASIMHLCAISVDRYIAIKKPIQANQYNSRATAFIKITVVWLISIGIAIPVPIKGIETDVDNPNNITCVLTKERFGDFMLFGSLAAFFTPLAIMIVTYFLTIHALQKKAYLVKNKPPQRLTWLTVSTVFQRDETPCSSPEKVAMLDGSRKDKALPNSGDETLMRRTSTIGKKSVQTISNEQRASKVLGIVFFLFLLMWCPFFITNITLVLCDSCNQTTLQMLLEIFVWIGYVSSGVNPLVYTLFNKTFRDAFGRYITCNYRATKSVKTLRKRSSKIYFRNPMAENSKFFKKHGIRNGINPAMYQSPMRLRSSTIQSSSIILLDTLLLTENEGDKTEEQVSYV
Procedure: Activity at the 5-HT2B receptor was examined as previously described ([Luethi et al., 2018]). In summary, HEK 293 cells expressing the human 5-HT2B receptor were seeded at a density of 50,000 cells per well in 96-well poly-D-lysine-coated plates overnight at 37°C. The cells were then incubated in growth medium consisting of high glucose Dulbecco’s modified Eagle’s medium (DMEM) (Invitrogen, Zug, Switzerland), 10% fetal calf serum (non-dialyzed, heat-inactivated), 250 mg/l Geneticin and 10 ml/l PenStrep (Gibco), overnight at 37°C. After removal of the growth medium via snap inversion, calcium indicator Fluo-4-solution (100 µl) was injected into each well (Molecular Probes, Eugene, OR, USA) and incubated for 45 min at 31°C. Afterwards, the Fluo-4 solution was removed (snap inversion) and a further 100 µl of the Fluo-4 solution was added and incubated (45 min, 31°C). Thereafter, using the EMBLA cell washer, the cells were washed just before testing with HBSS and 20 mM HEPES and exposed to 100 µl of assay buffer. The well plate was positioned in the FLIPR and while online, 25 µl of the test compounds diluted in assay buffer were added. Concentration-response curves were calculated using nonlinear regression, and EC50 values were obtained. The maximal activity at the receptors was calculated relative to 5-HT activity which was defined as 100%.

rat TAAR1 = biological target: T3, rat TAAR1 (Rattus norvegicus, UniProt Q923Y9); experiment: Radioligand binding, rat TAAR1 ([3H]RO5166017)
T3 construct: expressed in transfected cells; host or cells: HEK 293 (membrane preparation)
T3 sequence (Q923Y9 whole entry): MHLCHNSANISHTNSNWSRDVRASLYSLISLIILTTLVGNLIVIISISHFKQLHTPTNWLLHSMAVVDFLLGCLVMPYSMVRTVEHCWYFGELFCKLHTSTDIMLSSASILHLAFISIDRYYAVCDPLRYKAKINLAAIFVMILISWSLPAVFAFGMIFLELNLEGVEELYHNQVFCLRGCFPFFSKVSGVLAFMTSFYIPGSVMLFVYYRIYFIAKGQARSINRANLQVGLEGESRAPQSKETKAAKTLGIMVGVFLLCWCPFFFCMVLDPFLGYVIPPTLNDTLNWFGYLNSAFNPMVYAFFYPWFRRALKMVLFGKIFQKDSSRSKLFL

human TAAR1 = biological target: T4, human TAAR1 (Homo sapiens, UniProt Q96RJ0); experiment: Activity at the human TAAR1 (cAMP, HEK 293 cells); assay type: cell-based; conditions: human TAAR1 EC50 ± SD
T4 construct: expressed in transfected cells; host or cells: HEK 293 (recombinant, Geneticin/hygromycin B selection)
T4 sequence (Q96RJ0 1-339): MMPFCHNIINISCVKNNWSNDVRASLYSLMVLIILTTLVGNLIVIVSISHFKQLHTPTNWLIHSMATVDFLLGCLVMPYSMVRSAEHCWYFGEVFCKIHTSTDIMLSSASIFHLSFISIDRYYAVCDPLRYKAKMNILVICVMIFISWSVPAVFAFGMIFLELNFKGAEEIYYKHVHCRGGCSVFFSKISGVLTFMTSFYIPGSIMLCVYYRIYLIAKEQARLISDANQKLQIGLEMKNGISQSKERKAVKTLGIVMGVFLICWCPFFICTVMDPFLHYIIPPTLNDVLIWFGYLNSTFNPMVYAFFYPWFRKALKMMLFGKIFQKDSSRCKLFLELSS
Procedure: Activity at the human TAAR1 was examined as previously described in full detail ([Luethi et al., 2018]). In summary, human TAAR1 expressing recombinant HEK 293 cells were grown in 250 ml falcon culture flasks containing 30 ml of high glucose DMEM (10% heat inactivated fetal calf serum, 500 µg/ml Geneticin [Gibco, Zug, Switzerland] and 500 µg/ml hygromycin B) at 37°C and 5% CO2/95% air. At 80-90% confluency, the cells were collected. The medium was aspirated, cells were washed with phosphate-buffered saline (PBS) and then trypsinized for 5 min at 37°C with 5 ml of trypsin/EDTA solution. Next, 45 ml of medium was added and the mixture was transferred into a falcon tube. After centrifugation (900 rpm, 3 min, RT), the supernatant was aspirated and the remaining cell pellet was resuspended in fresh medium to […]. Using a multipipette, 100 µl of cells were transferred (80,000 cells/well) into a 96-well plate (BIOCOAT 6640, Becton Dickinson, Allschwil, Switzerland) and incubated for 20 h at 37°C. For the cAMP assay, the medium was aspirated replaced with 50 µL PBS without Ca^2+ and Mg^2+ ions. The PBS was then extracted using snap inversion and the plate was softly tapped against tissue; 90 µL of Krebs-Ringer Bicarbonate buffer (Sigma-Aldrich) containing 1 mM IBMX was added and incubated for 60 min at 37°C and 5% CO2/95% air. A concentration range between 300 pM and 30 µM of test compounds was examined in duplicate. A standard curve with a range of cAMP concentrations (0.13 nM to 10 µM) was created per 96-well plate. Each experiment was accompanied with a reference plate that included three compounds; RO5256390, β-phenylethylamine, and p-tyramine. The cells were exposed to either 30 µl of compound solution, 30 µl of β-phenylethylamine (as maximal response), or a basal control in PBS (containing 1 mM IBMX) for 40 min at 37°C. Next, under forceful shaking using black lids, the cells were exposed to 50 µl of 3x detection mix solution (composed of Ru-cAMP Alexa700 anti-cAMP antibody and lysis buffer) for 120 min at room temperature in order to lyse the cells. Using the NanoScan reader (Innovative Optische Messtechnik, Berlin, Germany; 456 nm excitation wavelength; 630 and 700 nm emission wavelengths), the fluorescence was examined and the fluorescence resonance energy transfer (FRET) signal was determined using the following equation; FRET (700 nm) − P × FRET (630 nm), where P = Ru (700 nm)/Ru (630 nm). Receptor binding affinity at the human TAAR1 was not determined since unfortunately, there are no suitable radioligands available for this receptor.
Functional activity of the derivatives was only examined at the human TAAR1 and not at the mouse and rat TAAR1, because functional assays are not set up.

| SMILES | Ki (α1A adrenergic receptor) [nM] | EC50 (human 5-HT2B receptor) [nM] | Emax (human 5-HT2B receptor) [%] | Ki (rat TAAR1) [nM] | EC50 (human TAAR1) [nM] | Increase in 5-HT2B activation potency compared to 2C-O-21 (9) (human 5-HT2B receptor) [fold] | Higher 5-HT2B activation potency compared to TMA-2 (19) (human 5-HT2B receptor) [fold] | Higher rat TAAR1 affinity than TMA-2 (19) and MIPM (18) (rat TAAR1) [fold] |
| --- | --- | --- | --- | --- | --- | --- | --- | --- |
| CCOc1cc(OC)c(CCN)cc1OC [2C-O-2, 2,5-dimethoxy-4-ethoxyphenethylamine] | > 6500 | 49 ± 44 | 85 to 101 | 340 ± 70 | 9600 ± 6340 | – | – | – |
| C=C(C)COc1cc(OC)c(CCN)cc1OC [2C-O-3, 2,5-dimethoxy-4-methallyloxyphenethylamine] | > 6500 | 68 ± 21 | 50 ± 22 | 130 | > 30000 | – | – | – |
| C=CCOc1cc(OC)c(CCN)cc1OC [2C-O-16, 4-allyloxy-2,5-dimethoxyphenethylamine] | > 6500 | 120 ± 70 | 42 ± 13 | 260 ± 70 | > 30000 | – | – | – |
| COc1cc(OCCF)c(OC)cc1CCN [2C-O-21, 2,5-dimethoxy-4-(2-fluoroethoxy)phenethylamine] | > 6500 | 900 ± 450 | 39 ± 26 | 410 ± 40 | > 30000 | – | – | – |
| COc1cc(OCC(F)F)c(OC)cc1CCN [2C-O-21.5, 4-(2,2-difluoroethoxy)-2,5-dimethoxyphenethylamine] | > 6500 | 480 ± 260 | 28 ± 23 | 250 ± 20 | > 30000 | 2 | – | – |
| COc1cc(OCC(F)(F)F)c(OC)cc1CCN [2C-O-22, 2,5-dimethoxy-4-(2,2,2-trifluoroethoxy)phenethylamine] | > 6500 | 250 ± 10 | 28 ± 20 | 240 ± 60 | 3600 ± 2400 | 4 | – | – |
| COc1cc(OCc2ccccc2)c(OC)cc1CCN [2C-O-27, 4-benzyloxy-2,5-dimethoxyphenethylamine] | > 6500 | 480 ± 190 | 39 ± 16 | 21 ± 3 | > 30000 | – | – | – |
| C=CCOc1cc(OC)c(CC(C)N)cc1OC (stereo not drawn) [MALM, 4-allyloxy-2,5-dimethoxyamphetamine] | > 6500 | 9.5 ± 3.3 | 85 to 101 | 1100 ± 200 | > 30000 | – | 28 | 3 |
| COc1cc(OCC(F)F)c(OC)cc1CC(C)N (stereo not drawn) [MDFEM, 4-(2,2-difluoroethoxy)-2,5-dimethoxyamphetamine] | > 6500 | 130 ± 80 | 21 ± 8 | 1200 ± 200 | > 30000 | – | – | – |
| COc1cc(OCCF)c(OC)cc1CC(C)N (stereo not drawn) [MFEM, 2,5-dimethoxy-4-(2-fluoroethoxy)amphetamine] | > 6500 | 270 ± 210 | 41 ± 22 | 1640 ± 300 | > 30000 | – | – | – |
| COc1cc(OC(C)C)c(OC)cc1CC(C)N (stereo not drawn) [MIPM, 2,5-dimethoxy-4-isopropoxyamphetamine] | > 6500 | 180 ± 120 | 20 ± 14 | 2900 ± 700 | > 30000 | – | 2 | – |
| C=C(C)COc1cc(OC)c(CC(C)N)cc1OC (stereo not drawn) [MMALM, 2,5-dimethoxy-4-methallyloxyamphetamine] | > 6500 | 29 ± 13 | 85 to 101 | 630 ± 150 | > 30000 | – | 9 | 5 |
| COc1cc(OCC(F)(F)F)c(OC)cc1CC(C)N (stereo not drawn) [MTFEM, 2,5-dimethoxy-4-(2,2,2-trifluoroethoxy)amphetamine] | > 6500 | 200 ± 30 | 5 | 1300 ± 100 | > 30000 | – | – | – |
